Data as given in patent publication US7955596B2 (priority 2003, dated 2011).
Where two headings read alike, the source gives them in different places.

Experiments:
B. anthracis strain 34F2 [1] = type: cell-based
B. anthracis strain 34F2 [2] = type: cell-based; remark: listed apart in the source
[3] = test system: B. anthracis strain RBAF140; type: cell-based
[4] = test system: pag-lacZ (pagA protective antigen gene transcription); type: cell-based, B. anthracis
[5] = test system: B. anthracis protective antigen (PA); type: cell-based
[6] = test system: AI-2-mediated quorum-sensing; conditions: cited from earlier work
[7] = test system: AI-2-mediated quorum-sensing; conditions: cited from earlier work; remark: listed apart in the source
B. subtilis = conditions: cited from earlier work
[8] = test system: AI-1 and AI-2-mediated quorum-sensing pathways; conditions: cited from earlier work

SMILES	B. anthracis growth (OD600) (B. anthracis strain 34F2 [1])	Bacterial growth (OD600) (B. anthracis strain 34F2 [1])	Bacterial growth (OD600) with increasing concentration (B. anthracis strain 34F2 [1])	Bacterial growth (OD600) with increasing concentration, log phase cells (B. anthracis strain 34F2 [2])	Growth of RBAF140 (OD600) [3]	Expression of pag-lacZ (β-gal activity) [4]	PA expression (Western blot) [5]	AI-2-mediated quorum-sensing [6]	AI-2-mediated quorum-sensing [7]	Biofilm formation (B. subtilis)	Swarming (B. subtilis)	AI-1 and AI-2-mediated quorum-sensing pathways [8]	Inhibitory effect compared among furanones 1, 2 and 4 (B. anthracis strain 34F2 [1])
CCCCC1=C(Br)/C(=C/Br)OC1=O [furanone 1, (5Z)-4-bromo-5-(bromomethylene)-3-butyl-2(5H)-furanone]	dramatically inhibited	completely inhibited	increasingly retarded	increasingly retarded	significant inhibition of growth	significantly reduced	significant reduction	inhibit	inhibit	inhibit	inhibit	directly inhibit	
CCCCC1=CC(=C(Br)Br)OC1=O [furanone 2, 3-butyl-5-(dibromomethylene)-2-(5H)-furanone]													least
O=C1C=C(Br)/C(=C/Br)O1 [furanone 4, 4-bromo-5-(bromomethylene)-2(5H)-furanone]													most potent inhibitory effect
